In one data set the target is cytochrome P450 2C9 (Homo sapiens, UniProt P11712). In words: Determining the cyp2C9 activity (O-demethylation of [O-methyl-14C]-naproxen). Format: in vitro ADME. The settings on record: human recombinant cytochrome P450 2C9; 37° C.; <0.4 μM when inhibition >50% at lowest concentration; read-out: CYP 2C9 IC50. As to the method: Determining the cyp2C9 Activity:
The assay is carried out in a robot system with 96-well plates. The final incubation volume is 200 μl of TRIS-Puffer (0.1 M), magnesium chloride (5 mM), recombinant protein (40 pmol/ml), ^14C-labelled naproxen (80 μM) and the test compound in one of 4 concentrations (50 μM, 10 μM, 2 μM and 0.4 μM) as a duplicate in each case. After a short preincubation period the reactions are started by the addition of the cofactor (NADPH, 1 mM) and ended after 15 min by the addition of 50 μl of a 10% aqueous trichloroacetic acid solution. One aliquot of the incubate is transferred onto a 96-well solid phase extraction plate and extracted. The ^14C-formaldehyde formed during the reaction is not retained on the solid phase extraction plate and is thus separated from the unmetabolised substrate by washing the solid phase extraction plate with water. One aliquot of the eluate is transferred into a well plate suitable for liquid scintillation. […] The IC50 is determined by the least squares method using the following formula: control activity=(100% control activity/(1+(I/IC50)S))−B where I=Inhibitor concentration S=Pitch B=Background activity
When the inhibition of the reaction is >50% even at the lowest concentration of the test compound, the IC50 is given as <0.4 μM.

For another data set, the target named is p38 MAP-kinase (Homo sapiens, UniProt Q16539). Description: p38 MAP-kinase enzymatic assay (phosphorylation of GST-tagged ATF2, chemoluminescence). Format: biochemical. As to conditions: inhibitor concentration 1 μM; activated p38 MAP-kinase 1 nM; ATP 100 μM; read-out: p38 (% Inh @ 1 μM). As for the experimental part: In this, the amount of a substrate phosphorylated by the kinase is quantified. The test is carried out as follows:
The kinase reaction is carried out in the presence of HEPES (20 mM, pH 7), MgCl2 (10 mM), DTT (1 mM) and TWEEN20 (0.01%). First, dimethylsulphoxide or inhibitor (final concentration: 1 μM) dissolved in dimethylsulphoxide are placed in a reaction vessel. Then the activated p38 MAP-kinase (final concentration 1 nM) is added and the mixture is incubated for 4 h at ambient temperature. Then a mixture of substrate (GST-tagged ATF2) and ATP is added and everything is incubated together for a further hour (final concentration ATP: 100 μM; final concentration ATF2: 10 nM).
The concentration of phosphorylated ATF2 is quantified by chemoluminescence-induced light emission. For this, a glutathione donor bead (final concentration: 5 μg/ml) which binds to the gluthathione on the ATF2 and phospho-ATF2 antibodies are added to the reaction mixture (final concentration: 3 nM; this binds the phosphate group added by the kinase reaction) to which a Protein A Acceptor Bead (final concentration: 5 μg/ml) binds. These components are dissolved in a buffer which contains 20 mM HEPES pH 7.0, 200 mM NaCL, 80 mM EDTA as well as 0.3% BSA. This reaction mixture is incubated in the dark for 1 hour at ambient temperature. When these beads come physically close, visible light is emitted which is measured in a photometer at 520-620 nm.
To determine the inhibitory activity of the compounds according to the invention a calculation is made to determine the percentage by which the kinase activity is inhibited at a fixed inhibitor concentration of 1 μM. The maximum activity is determined by non-inhibited kinase. The minimum activity or nonspecific background activity is determined using a reaction mixture without kinase.
Table 2 summarises the degree of inhibition of the enzyme p38 MAP-kinase—as described hereinbefore—mediated by the compounds according to the invention detailed in the section “Preparation of the final compounds”.

Data set [1] is described as follows: Determining the solubility (saturated solution in McIlvaine buffer pH 7.4, UV spectroscopy). The settings on record: pH 7.4, aqueous buffer, thermodynamic from solid, shaken 2 hours, 0.75 mg solid in 0.75 ml. Format: physicochemical. As to the method: Determining the Solubility:
Saturated solutions are prepared in suitable well dishes by adding 0.75 ml of a McIlvaine buffer (pH 7.4) to the well in question containing 0.75 mg of solid of an active substance. The wells are shaken for 2 hours and then filtration is carried out through a suitable filter membrane (typically polytetrafluoroethylene with a pore size of 0.45 μm). Filter absorption is prevented by discarding the first few drops of filtrate. The amount of active substance dissolved is determined by UV spectroscopy.

Values after ≈ are worked out from the molar mass of the structure shown.

Chain of cytochrome P450 2C9 (P11712 whole entry): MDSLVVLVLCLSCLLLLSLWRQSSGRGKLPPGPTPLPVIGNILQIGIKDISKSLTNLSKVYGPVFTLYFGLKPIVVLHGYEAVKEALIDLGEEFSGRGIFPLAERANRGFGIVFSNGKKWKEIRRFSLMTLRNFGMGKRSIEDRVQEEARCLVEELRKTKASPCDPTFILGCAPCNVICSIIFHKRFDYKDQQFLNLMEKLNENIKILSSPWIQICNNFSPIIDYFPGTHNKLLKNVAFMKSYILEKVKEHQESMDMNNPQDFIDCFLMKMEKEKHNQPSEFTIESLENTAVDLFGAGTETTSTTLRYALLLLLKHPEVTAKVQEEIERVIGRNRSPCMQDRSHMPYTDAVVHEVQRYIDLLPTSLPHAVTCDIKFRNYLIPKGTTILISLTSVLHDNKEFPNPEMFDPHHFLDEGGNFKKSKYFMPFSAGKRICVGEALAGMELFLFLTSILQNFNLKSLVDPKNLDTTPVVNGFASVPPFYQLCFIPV
Chain of p38 MAP-kinase (Q16539 whole entry): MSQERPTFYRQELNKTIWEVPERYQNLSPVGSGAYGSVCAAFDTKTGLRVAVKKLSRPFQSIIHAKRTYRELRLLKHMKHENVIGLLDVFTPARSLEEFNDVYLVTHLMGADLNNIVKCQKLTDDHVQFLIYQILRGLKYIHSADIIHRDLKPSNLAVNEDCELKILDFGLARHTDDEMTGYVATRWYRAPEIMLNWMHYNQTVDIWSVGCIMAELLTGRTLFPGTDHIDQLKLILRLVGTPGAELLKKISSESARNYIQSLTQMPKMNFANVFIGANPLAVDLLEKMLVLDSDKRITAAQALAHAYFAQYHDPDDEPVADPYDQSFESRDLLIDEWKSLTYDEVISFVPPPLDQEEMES

As for `COc1c(CN2CCN(C)CC2)cc(C(C)(C)C)cc1NC(=O)c1cc2cccc(CN3CCN(C(=O)[C@@H]4CCCN4C)CC3)c2n1C` [Example 9, (S)-1-methyl-7-[4-(1-methyl-pyrrolidine-2-carbonyl)-piperazin-1-ylmethyl]-1H-indole-2-carboxylic acid-[5-tert-butyl-2-methoxy-3-(4-methyl-piperazin-1-ylmethyl)-phenyl]-amide], on cytochrome P450 2C9, the IC50 came out at 11000 nM. Also, on p38 MAP-kinase, the inhibition at 1 µM was determined as 98.8%. In addition, the solubility at 2 h in data set [1] is over 1000 µg/mL.
The corresponding values for `COc1c(NC(=O)c2cc3cccc(CN4CCN(C(=O)C(C)N5CCCC5)CC4)c3n2C)cc(C(C)(C)C)cc1NS(C)(=O)=O` (stereo not drawn) [1(13), 1-methyl-7-[4-(2-pyrrolidin-1-yl-propionyl)-piperazin-1-ylmethyl]-1H-indole-2-carboxylic acid-(5-tert-butyl-3-methanesulphonylamino-2-methoxy-phenyl)-amide] are 560 nM, 98.7% and 40 µg/mL (≈ 61.3 µM).
For `COc1c(NC(=O)c2cc3cccc(CN4CCCN(C(=O)[C@@H]5CCN(C)C5)CC4)c3n2C)cc(C(C)(C)C)cc1NS(C)(=O)=O` [5(2), (R)-1-methyl-7-[4-(1-methyl-pyrrolidine-3-carbonyl)-[1,4]diazepan-1-ylmethyl]-1H-indole-2-carboxylic acid-(5-tert-butyl-3-methanesulphonylamino-2-methoxy-phenyl)-amide], on cytochrome P450 2C9, the IC50 worked out at 990 nM. Besides, the inhibition at 1 µM on p38 MAP-kinase worked out at 98%. The amount in solution in data set [1] (solubility at 2 h) came to 160 µg/mL (≈ 245 µM).
For the compound `COc1c(NC(=O)c2cc3cccc(CN4CCN(C(=O)CN5CCN(C(C)C)CC5)CC4)c3n2C)cc(C(C)(C)C)cc1NS(C)(=O)=O` [1(14), 7-{4-[2-(4-isopropyl-piperazin-1-yl)-acetyl]-piperazin-1-ylmethyl}-1-methyl-1H-indole-2-carboxylic acid-(5-tert-butyl-3-methanesulphonylamino-2-methoxy-phenyl)-amide], the half-inhibitory concentration (IC50) on cytochrome P450 2C9 was determined as 630 nM. Further, on p38 MAP-kinase, the inhibition at 1 µM stood at 99.1%. This compound also gave a solubility at 2 h in data set [1] of 120 µg/mL (≈ 172 µM).
The corresponding values for `COc1c(NC(=O)c2cc3cccc(CN4CCN(C(=O)C5CC5)CC4)c3n2C)cc(C(C)(C)C)cc1NS(C)(=O)=O` [Vc, reference compound] are under 400 nM, 99.1% and under 1 µg/mL.
In the case of `COc1c(NC(=O)c2cc3cccc(CN4CCN(C(=O)CN5CCNCC5)CC4)c3n2C)cc(C(C)(C)C)cc1NS(C)(=O)=O` [Example 7, 1-methyl-7-[4-(2-piperazin-1-yl-acetyl)-piperazin-1-ylmethyl]-1H-indole-2-carboxylic acid-(5-tert-butyl-3-methanesulphonylamino-2-methoxy-phenyl)-amide], on cytochrome P450 2C9, the IC50 stood at 5320 nM. Also, the inhibition at 1 µM on p38 MAP-kinase amounted to 98.7%. The same compound yielded a solubility at 2 h in data set [1] of 110 µg/mL (≈ 168 µM).
The corresponding values for `COc1c(NC(=O)c2cc3cccc(CN4CCN(C(=O)N5CC[C@H](N(C)C)C5)CC4)c3n2C)cc(C(C)(C)C)cc1NS(C)(=O)=O` [2(1), (S)-7-[4-(3-dimethylamino-pyrrolidine-1-carbonyl)-piperazin-1-ylmethyl]-1-methyl-1H-indole-2-carboxylic acid (5-tert-butyl-3-methanesulphonylamino-2-methoxy-phenyl)-amide] are 880 nM, 99% and 28 µg/mL (≈ 41.9 µM).
For `COc1c(NC(=O)c2cc3cccc(CN4CCCN(C(=O)[C@H]5CCCN5C)CC4)c3n2C)cc(C(C)(C)C)cc1NS(C)(=O)=O` [1(21), 1-methyl-7-[4-((2R)-1-methyl-pyrrolidine-2-carbonyl)-[1,4]diazepan-1-ylmethyl]-1H-indole-2-carboxylic acid-(5-tert-butyl-3-methanesulphonylamino-2-methoxy-phenyl)-amide], in that order: 4020 nM, 98.9% and 45 µg/mL (≈ 68.9 µM).
`CN1CCC[C@H]1C(=O)N1CCN(Cc2cccc3cc(C(=O)Nc4cccc(N5CCOCC5)c4)n(C)c23)CC1` [1(25), (S)-1-methyl-7-[4-(1-methyl-pyrrolidine-2-carbonyl)-piperazin-1-ylmethyl]-1H-indole-2-carboxylic acid-(3-morpholin-4-yl-phenyl)-amide]: the IC50 at cytochrome P450 2C9 was 7910 nM. Also, on p38 MAP-kinase, the inhibition at 1 µM was 35.4%. In addition, the solubility at 2 h in data set [1] was 48 µg/mL (≈ 88.1 µM).
For the compound `CCC(=O)Nc1cc(C(C)(C)C)cc(NC(=O)c2cc3cccc(CN4CCN(C(=O)[C@@H]5CCCN5C)CC4)c3n2C)c1OC` [Example 12, (S)-1-methyl-7-[4-(1-methyl-pyrrolidine-2-carbonyl)-piperazin-1-ylmethyl]-1H-indole-2-carboxylic acid-(5-tert-butyl-2-methoxy-3-propionylamino-phenyl)-amide], at cytochrome P450 2C9, the IC50 turned out to be 500 nM. In addition, the inhibition at 1 µM at p38 MAP-kinase worked out at 97.9%. In data set [1], this compound gave a solubility at 2 h of 660 µg/mL (≈ 1070 µM).
The corresponding values for `COc1c(NC(=O)c2cc3cccc(CN4CCN(C(=O)C5CCCN(C)C5)CC4)c3n2C)cc(C(C)(C)C)cc1NS(C)(=O)=O` (stereo not drawn) [Example 4, 1-methyl-7-[4-(1-methyl-piperidine-3-carbonyl)-piperazin-1-ylmethyl]-1H-indole-2-carboxylic acid (5-tert-butyl-3-methanesulphonylamino-2-methoxy-phenyl)-amide] are 440 nM, 99.4% and 78 µg/mL (≈ 119 µM).
For `CCC(C)c1cc(NC(=O)c2cc3cccc(CN4CCN(C(=O)[C@@H]5CCCN5C)CC4)c3n2C)c(OC)c(NS(C)(=O)=O)c1` (stereo partly drawn) [11(1), 1-methyl-7-[4-((2S)-1-methyl-pyrrolidine-2-carbonyl)-piperazin-1-ylmethyl]-1H-indole-2-carboxylic acid-(5-sec-butyl-3-methanesulphonylamino-2-methoxy-phenyl)-amide], in that order: 2650 nM, 13.2% and over 1000 µg/mL.
The corresponding values for `COc1c(NC(=O)c2cc3cccc(CN4CCN(C(=O)CN5CCN(C)CC5)CC4)c3n2C)cc(C(C)(C)C)cc1NS(C)(=O)=O` [1(17), 1-methyl-7-{4-[2-(4-methyl-piperazin-1-yl)-acetyl]-piperazin-1-ylmethyl}-1H-indole-2-carboxylic acid-(5-tert-butyl-3-methanesulphonylamino-2-methoxy-phenyl)-amide] are 990 nM, 99.1% and 46 µg/mL (≈ 68.9 µM).
Consider `COc1c(NC(=O)c2cc3cccc(CN4CCN(C(=O)CN5CC[C@@H](O)C5)CC4)c3n2C)cc(C(C)(C)C)cc1NS(C)(=O)=O` [6(1), (R)-7-{4-[2-(3-hydroxy-pyrrolidin-1-yl)-acetyl]-piperazin-1-ylmethyl}-1-methyl-1H-indole-2-carboxylic acid-(5-tert-butyl-3-methanesulphonylamino-2-methoxy-phenyl)-amide], for which, at cytochrome P450 2C9, the IC50 came to 470 nM. The inhibition at 1 µM on p38 MAP-kinase is 99.2%. In data set [1], this compound had a solubility at 2 h of 47 µg/mL (≈ 71.8 µM).

The term IC50 denotes the point on the concentration scale where inhibition reaches its midpoint. Broadly, the solubility is the dissolved amount per volume that the medium holds. Low values mean little dissolved substance, high ones much dissolved substance.

The values above are taken from patent US8686022B2, “7-(piperazine-1-ymethyl)-1H-indole-2-carboxylic acid (phenyl)-amide derivatives and allied compounds as p38 MAP kinase inhibitors for the treatment of respiratory diseases” (Boehringer Ingelheim International GmbH, priority 2008, dated 2014).
